Experimental data: US20200165291A1, “NEUROACTIVE STEROIDS, COMPOSITIONS, AND USES THEREOF” (Sage Therapeutics, Inc., priority 2014, published 2020)
Read-outs that look alike come from different tables or passages of the source.

Assays:
[1] = target: T1, recombinant α1β2γ2 GABAA receptors (Homo sapiens, UniProt P14867+P47870); assay: Patch clamp electrophysiology, QPatch, LTK cells; type: cell-based; settings: 10 μM test article, GABA EC20 = 2 μM, read-out: GABA (α1β2γ2) Qpatch in Ltk, % efficacy at 10 μM
T1 construct: expressed in transfected cells
T1 sequence (P14867 28-456): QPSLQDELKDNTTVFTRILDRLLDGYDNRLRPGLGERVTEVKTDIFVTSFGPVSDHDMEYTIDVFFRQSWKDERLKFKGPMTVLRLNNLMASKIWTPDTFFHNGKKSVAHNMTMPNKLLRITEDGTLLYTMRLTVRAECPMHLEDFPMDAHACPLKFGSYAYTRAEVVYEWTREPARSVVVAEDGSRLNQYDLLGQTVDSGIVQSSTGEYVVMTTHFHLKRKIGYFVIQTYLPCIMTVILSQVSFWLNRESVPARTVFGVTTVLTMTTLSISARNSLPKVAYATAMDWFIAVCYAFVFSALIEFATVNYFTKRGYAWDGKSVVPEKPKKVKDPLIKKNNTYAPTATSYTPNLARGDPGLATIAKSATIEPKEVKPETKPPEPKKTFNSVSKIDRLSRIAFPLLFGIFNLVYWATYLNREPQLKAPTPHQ
T1 sequence (P47870 25-512 limits assumed): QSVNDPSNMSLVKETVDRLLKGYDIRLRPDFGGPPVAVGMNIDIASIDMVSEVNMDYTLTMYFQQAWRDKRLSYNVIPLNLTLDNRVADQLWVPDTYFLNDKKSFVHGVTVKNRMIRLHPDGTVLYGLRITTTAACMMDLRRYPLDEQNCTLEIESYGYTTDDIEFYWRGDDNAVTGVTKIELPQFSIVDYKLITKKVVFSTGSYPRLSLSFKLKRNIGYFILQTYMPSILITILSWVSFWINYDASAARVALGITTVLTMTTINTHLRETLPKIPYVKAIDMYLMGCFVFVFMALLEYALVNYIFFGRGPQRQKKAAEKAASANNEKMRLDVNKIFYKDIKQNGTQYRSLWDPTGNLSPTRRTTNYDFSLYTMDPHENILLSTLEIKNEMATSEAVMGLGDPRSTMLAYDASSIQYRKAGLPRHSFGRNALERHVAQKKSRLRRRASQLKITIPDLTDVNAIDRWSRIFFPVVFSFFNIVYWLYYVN
T1 sequence (P18507 40-475 partner): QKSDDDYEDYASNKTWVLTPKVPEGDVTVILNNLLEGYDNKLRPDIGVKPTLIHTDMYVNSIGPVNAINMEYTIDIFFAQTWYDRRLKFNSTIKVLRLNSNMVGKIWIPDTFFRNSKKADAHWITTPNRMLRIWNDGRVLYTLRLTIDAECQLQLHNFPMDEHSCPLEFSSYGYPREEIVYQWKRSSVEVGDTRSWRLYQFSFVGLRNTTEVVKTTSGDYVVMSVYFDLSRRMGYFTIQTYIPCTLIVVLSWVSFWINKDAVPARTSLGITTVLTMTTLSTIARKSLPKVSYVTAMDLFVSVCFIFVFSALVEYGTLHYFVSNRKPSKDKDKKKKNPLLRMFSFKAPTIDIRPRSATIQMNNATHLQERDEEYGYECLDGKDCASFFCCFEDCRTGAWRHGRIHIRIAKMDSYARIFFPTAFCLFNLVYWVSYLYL

[2] = target: T2, recombinant α4β3δ GABAA receptors (Homo sapiens, UniProt P28472+P48169); assay: Patch clamp electrophysiology, manual patch, CHO cells; type: cell-based; settings: 10 μM test article, GABA EC20 = 2 μM, read-out: GABA (α4β3δ) Manual patch in CHO, % efficacy at 10 μM
T2 construct: expressed in transfected cells; host or cells: CHO cells (transient transfection, Lipofectamine)
T2 sequence (P48169 36-554): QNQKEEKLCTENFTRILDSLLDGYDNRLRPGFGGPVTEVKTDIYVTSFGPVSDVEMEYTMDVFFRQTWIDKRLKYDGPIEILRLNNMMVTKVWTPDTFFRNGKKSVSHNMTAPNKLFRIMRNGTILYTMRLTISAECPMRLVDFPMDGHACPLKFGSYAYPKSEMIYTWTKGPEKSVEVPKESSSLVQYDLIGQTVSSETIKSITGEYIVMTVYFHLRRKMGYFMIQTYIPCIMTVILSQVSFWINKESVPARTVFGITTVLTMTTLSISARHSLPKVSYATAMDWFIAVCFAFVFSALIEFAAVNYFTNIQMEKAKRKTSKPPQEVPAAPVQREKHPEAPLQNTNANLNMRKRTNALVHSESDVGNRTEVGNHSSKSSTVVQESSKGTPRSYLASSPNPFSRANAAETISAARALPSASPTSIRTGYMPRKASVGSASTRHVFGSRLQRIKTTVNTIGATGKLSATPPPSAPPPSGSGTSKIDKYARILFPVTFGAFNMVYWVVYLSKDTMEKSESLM
T2 sequence (P28472 26-473): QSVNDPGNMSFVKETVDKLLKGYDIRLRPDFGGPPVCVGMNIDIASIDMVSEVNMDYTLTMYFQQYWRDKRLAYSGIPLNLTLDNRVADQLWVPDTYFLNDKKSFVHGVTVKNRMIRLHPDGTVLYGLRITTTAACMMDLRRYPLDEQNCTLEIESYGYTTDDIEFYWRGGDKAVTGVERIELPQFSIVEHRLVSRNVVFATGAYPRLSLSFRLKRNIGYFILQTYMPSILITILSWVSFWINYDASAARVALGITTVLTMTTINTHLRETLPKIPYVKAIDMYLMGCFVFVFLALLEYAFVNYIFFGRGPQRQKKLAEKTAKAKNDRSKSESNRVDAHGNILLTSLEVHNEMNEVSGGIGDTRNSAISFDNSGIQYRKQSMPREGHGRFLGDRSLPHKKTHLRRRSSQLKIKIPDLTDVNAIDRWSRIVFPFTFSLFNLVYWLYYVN
T2 sequence (O14764 17-452 partner limits assumed): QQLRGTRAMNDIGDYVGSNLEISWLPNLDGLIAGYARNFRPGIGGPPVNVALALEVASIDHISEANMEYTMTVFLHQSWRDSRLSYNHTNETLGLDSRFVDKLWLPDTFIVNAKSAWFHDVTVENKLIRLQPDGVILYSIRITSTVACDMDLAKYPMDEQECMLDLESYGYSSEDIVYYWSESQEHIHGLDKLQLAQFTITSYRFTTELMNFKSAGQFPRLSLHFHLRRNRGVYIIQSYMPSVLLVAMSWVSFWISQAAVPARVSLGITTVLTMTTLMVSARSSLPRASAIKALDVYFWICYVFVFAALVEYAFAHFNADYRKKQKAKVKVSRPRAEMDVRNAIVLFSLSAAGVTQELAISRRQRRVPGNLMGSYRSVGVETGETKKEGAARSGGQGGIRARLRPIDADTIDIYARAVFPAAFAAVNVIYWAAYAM

[3] = test system: PTZ-treated male CD-1 mice; assay: Acute PTZ (pentylenetetrazol-induced seizure) method in mice; type: in vivo; settings: Mus musculus, latency to tonic seizures, read-out: Anticonvulsive Effect Dose (minimal effective anticonvulsant dose)
Procedure: The anticonvulsant effect of test compounds were assessed in the pentylenetetazol-induced seizure assay in mice similar to methods described in Giardina & Gasior (2009) Curr Protoc Pharmacol., Chapter 5. Male CD-1 mice were housed in groups of five under controlled conditions (temperature of 22±2° C. and 12:12 light-dark cycle, lights on at 8:00 am) and water and food were available ad libitum. The mice were housed for 1 week prior to behavioral testing, at which time they weighed 25-35 g. Pentylenetetrazol (PTZ, Sigma) was dissolved in sterile 0.9% saline at a concentration of 12 mg/mL concentration for subcutaneous administration. Test compounds were formulated and administered via oral gavage or intraperitoneal injection at a predetermined time-point (typically 30 or 60 minutes) prior to PTZ injection. All solutions were made fresh and were given in a volume of 10 ml/kg body weight.
Mice were acclimated to the test room for at least 30 min before compound administration. Mice were randomized into at least four test groups (vehicle and at least three doses of the test compound) with 10 mice per group. […] Following the drug pretreatment time the mice were injected s.c. with PTZ (120 mg/kg). Immediately following the PTZ injection, mice were individually placed into observation chambers (25×15×15 cm) and a three-channel timer was started. Each mouse was continuously observed for 30 min and the following behaviors were recorded by observers blinded to the treatments: 1) latency to clonic convulsions that persist for 3 sec and followed by an absence of righting reflex 2) latency to tonic convulsions, characterized by the rigid extension of all four limbs that exceeded a 90 degree angle with the body 3) latency to death 4) number of clonic and tonic convulsions. Data are presented as mean±S.E.M and one-way analysis of variance with Dunnett's or Bonferroni's post-hoc test was used to detect significant differences in latency and number between the vehicle and dose group. p values<0.05 were regarded as statistically significant.

[4] = target: [35S]-TBPS binding, rat brain cortical membranes (GABA receptor complex); assay: [35S]-TBPS binding (steroid inhibition of TBPS binding); settings: in the presence of 5 μM GABA, read-out: 35S-TBPS Radioligand Displacement
Procedure: [35S]-t-Butylbicyclophosphorothionate (TBPS) binding assays using rat brain cortical membranes in the presence of 5 μM GABA has been described (Gee et al, J. Pharmacol. Exp. Ther. 1987, 241, 346-353; Hawkinson et al, Mol. Pharmacol. 1994, 46, 977-985; Lewin, A. H et al., Mol. Pharmacol. 1989, 35, 189-194).
Briefly, cortices are rapidly removed following decapitation of carbon dioxide-anesthetized Sprague-Dawley rats (200-250 g). The cortices are homogenized in 10 volumes of ice-cold 0.32 M sucrose using a glass/teflon homogenizer and centrifuged at 1500×g for 10 min at 4° C. The resultant supernatants are centrifuged at 10,000×g for 20 min at 4° C. to obtain the P2 pellets. The P2 pellets are resuspended in 200 mM NaCl/50 mM Na-K phosphate pH 7.4 buffer and centrifuged at 10,000×g for 10 min at 4° C. This washing procedure is repeated twice and the pellets are resuspended in 10 volumes of buffer. Aliquots (100 μL) of the membrane suspensions are incubated with 3 nM [^35S]-TBPS and 5 μL aliquots of test drug dissolved in dimethyl sulfoxide (DMSO) (final 0.5%) in the presence of 5 μM GABA. The incubation is brought to a final volume of 1.0 mL with buffer. Nonspecific binding is determined in the presence of 2 μM unlabeled TBPS and ranged from 15 to 25%. Following a 90 min incubation at room temp, the assays are terminated by filtration through glass fiber filters (Schleicher and Schuell No. 32) using a cell harvester (Brandel) and rinsed three times with ice-cold buffer. Filter bound radioactivity is measured by liquid scintillation spectrometry. Non-linear curve fitting of the overall data for each drug averaged for each concentration is done using Prism (GraphPad). […] The concentration of test compound producing 50% inhibition (IC50) of specific binding and the maximal extent of inhibition (Imax) are determined for the individual experiments with the same model used for the overall data and then the means±SEM.s of the individual experiments are calculated.
Various compounds are or can be screened to determine their potential as modulators of [^35S]-TBPS binding in vitro. These assays are or can be performed in accordance with the above discussed procedures.

SMILES | Emax at 10 µM [1] | Emax at 10 µM [2] | minimal effective dose ([3]; PO (oral administration)) | IC50 [4] | Emax at 10 µM ([1]; in cremophor) | Emax at 10 µM ([2]; in cremophor) | minimal effective dose ([3]; IP (intraperitoneal injection))
C[C@@]1(O)CC[C@@H]2[C@H]3CC[C@]4(C)[C@@H](C(=O)Cn5cnnn5)CC[C@H]4[C@@H]3C[C@@H](F)[C@H]2C1 [SV-4] | 100 to 500% | 100 to 500% | 1 to 3 mg/kg |  |  |  | 
C[C@@]1(O)CC[C@@H]2[C@H]3CC[C@]4(C)[C@@H](C(=O)Cn5ccnn5)CC[C@H]4[C@@H]3C[C@@H](F)[C@H]2C1 [SV-1] | 100 to 500% | 100 to 500% | 1 to 3 mg/kg | 100 to 500 nM |  |  | 
CCO[C@H]1C[C@H]2[C@@H](CC[C@@H]3[C@@H]2CC[C@]2(C)[C@@H](C(=O)Cn4nccn4)CC[C@@H]32)C[C@]1(C)O [SY-2] | 100 to 500% | > 500% |  | 100 to 500 nM |  |  | 
C[C@@]1(O)CC[C@H]2[C@H](CC[C@@H]3[C@@H]2CC[C@]2(C)[C@@H](C(=O)Cn4ncc(C(N)=O)n4)CC[C@@H]32)C1 [SA-13] |  |  |  |  | 100 to 500% | > 500% | 
CO[C@H]1C[C@H]2[C@@H](CC[C@@H]3[C@@H]2CC[C@]2(C)[C@@H](C(=O)Cn4nccn4)CC[C@@H]32)C[C@]1(C)O [SU-2] | 100 to 500% | > 500% |  | 50 to 100 nM |  |  | 
C[C@]12CC[C@H]3[C@@H](CC[C@@H]4C[C@@](O)(C(F)F)CC[C@@H]43)[C@@H]1CC[C@@H]2C(=O)Cn1ccnn1 [SG-5] | > 500% | > 500% |  | 100 to 500 nM |  |  | 
Cc1nnnn1CC(=O)[C@H]1CC[C@H]2[C@@H]3C[C@@H](F)[C@H]4C[C@](C)(O)CC[C@@H]4[C@H]3CC[C@]12C [SV-6] | 100 to 500% | 100 to 500% |  |  |  |  | 
C[C@@]1(O)CC[C@H]2[C@H](CC[C@@H]3[C@@H]2CC[C@]2(C)[C@@H](C(=O)Cn4ccnn4)CC[C@@H]32)C1 [SA-9] | 100 to 500% | > 500% |  | 1 to 50 nM |  |  | 1 to 3 mg/kg
C[C@@]1(O)CC[C@H]2[C@@H](CC[C@@H]3[C@@H]2CC[C@]2(C)[C@@H](C(=O)Cn4cnnn4)CC[C@@H]32)C1 [SB-2] | 100 to 500% | 100 to 500% |  | 100 to 500 nM |  |  | > 3 mg/kg
C[C@]12CC[C@H]3[C@@H](CC[C@@H]4C[C@@](O)(C(F)F)CC[C@@H]43)[C@@H]1CC[C@@H]2C(=O)Cn1cnnn1 [SG-1] | 100 to 500% | 100 to 500% |  |  |  |  | 
C[C@@]1(O)CC[C@H]2[C@@H](CC[C@@H]3[C@@H]2CC[C@]2(C)[C@@H](C(=O)Cn4ccnn4)CC[C@@H]32)C1 [SB-6] | 100 to 500% | 100 to 500% |  | 50 to 100 nM |  |  | 1 to 3 mg/kg
Cc1nnnn1CC(=O)[C@H]1CC[C@H]2[C@@H]3CC[C@@H]4C[C@](C)(O)CC[C@@H]4[C@H]3CC[C@]12C [SA-6] | 100 to 500% | > 500% | 1 to 3 mg/kg | 1 to 50 nM |  |  | 
C[C@@]1(O)CC[C@H]2[C@H](CC[C@@H]3[C@@H]2CC[C@]2(C)[C@@H](C(=O)Cn4cnnn4)CC[C@@H]32)C1 [SA-2] | > 500% | 100 to 500% | 1 to 3 mg/kg | 50 to 100 nM |  |  | 
CO[C@@H]1C[C@@H]2[C@H](CC[C@]3(C)[C@@H](C(=O)Cn4ccnn4)CC[C@@H]23)[C@H]2CC[C@@](C)(O)C[C@H]21 [SL-1] | 10 to 100% |  |  | > 500 nM |  |  | 
Cc1nnnn1CC(=O)[C@H]1CC[C@H]2[C@@H]3CC[C@@H]4C[C@@](O)(CF)CC[C@@H]4[C@H]3CC[C@]12C [SF-2] | 100 to 500% | > 500% |  |  |  |  | 
CC[C@@]1(O)CC[C@H]2[C@H](CC[C@@H]3[C@@H]2CC[C@]2(C)[C@@H](C(=O)Cn4nnc(C)n4)CC[C@@H]32)C1 [SE-6] | 10 to 100% |  |  | > 500 nM |  |  | 
C[C@@H]1C[C@H]2[C@@H](CC[C@@H]3[C@@H]2CC[C@]2(C)[C@@H](C(=O)Cn4nccn4)CC[C@@H]32)C[C@]1(C)O [SN-2] | 100 to 500% | 100 to 500% |  | 1 to 50 nM |  |  | 
Cc1cnnn1CC(=O)[C@H]1CC[C@H]2[C@@H]3CC[C@@H]4C[C@](C)(O)CC[C@@H]4[C@H]3CC[C@]12C [SA-4] | > 500% | > 500% |  |  |  |  | 
COC[C@@]1(O)CC[C@H]2[C@@H](CC[C@@H]3[C@@H]2CC[C@]2(C)[C@@H](C(=O)Cn4nnnc4C)CC[C@@H]32)C1 [SI-3] | 100 to 500% | > 500% | ≤ 1 mg/kg |  |  |  | 
C[C@@]1(O)CC[C@@H]2[C@H]3CC[C@]4(C)[C@@H](C(=O)Cn5nccn5)CC[C@H]4[C@@H]3C[C@@H](F)[C@@H]2C1 [SH-2] | 100 to 500% |  |  | > 500 nM |  |  | 
COC[C@@]1(O)CC[C@H]2[C@H](CC[C@@H]3[C@@H]2CC[C@]2(C)[C@@H](C(=O)Cn4ccnn4)CC[C@@H]32)C1 [SM-5] | > 500% |  |  | 100 to 500 nM |  |  | 
C[C@H]1C[C@H]2[C@@H](CC[C@@H]3[C@@H]2CC[C@]2(C)[C@@H](C(=O)Cn4nccn4)CC[C@@H]32)C[C@]1(C)O [SZ-2] | 100 to 500% | 100 to 500% |  | 50 to 100 nM |  |  | 
Cc1nnnn1CC(=O)[C@H]1CC[C@H]2[C@@H]3CC[C@H]4C[C@](C)(O)CC[C@@H]4[C@H]3CC[C@]12C [SB-4] | 100 to 500% | > 500% |  |  |  |  | 
C[C@@]1(O)CC[C@H]2[C@@H](CC[C@@H]3[C@@H]2CC[C@]2(C)[C@@H](C(=O)Cn4cncn4)CC[C@@H]32)C1 [SB-1] |  | > 500% |  | 100 to 500 nM |  |  | 
CC[C@@]1(O)CC[C@H]2[C@@H](CC[C@@H]3[C@@H]2CC[C@]2(C)[C@@H](C(=O)Cn4nnnc4C)CC[C@@H]32)C1 [SP-4] | 10 to 100% |  |  | > 500 nM |  |  | 
